# Non-standard residues stand in square brackets, D forms with d. Residues, ends and D or L forms follow the SMILES beside them. *: point of attachment. pGlu = O=C1CC[CH](C(=O)O)N1; Morpholide = C1CN(*)CCO1; Thz = O=C(O)[CH]1CSCN1
row,Compound,melting point
1,COc1ccc2oc(N(C=O)[C@@H](Cc3ccccn3)c3ncc(-c4ccc([N+](=O)[O-])cc4)n3C)cc2c1,210 to 211 °C
2,CCOC(=O)CCCCOc1ccc(OCC(F)(F)F)cc1C(=O)NCC1CCCCN1 (stereo not given),100 to 102 °C
3,CCOC(=O)CSc1nc(Cl)c(C)c(NCc2ccc(Cl)cc2)n1,114 to 117 °C
4,CCc1nc2c(O)c(CCC(O)c3ccccc3)c(C(=O)N(C)C)cc2n1C (stereo not given),121 to 124 °C
5,CCOc1ccc(OC)c([N+](=O)[O-])c1,33 to 36 °C
6,CCC1=NC(NC(=O)Nc2cccc(C)c2)C(=O)N(CC(=O)N2CCCCCCC2)c2c(C)cccc21 (stereo not given),189 to 190 °C
7,CC1(C)C(C#N)C1C(=O)O (stereo not given),101 to 106 °C
8,Cc1ccc(CS(=O)c2nc3cc4c(cc3[nH]2)OC(F)C(F)(F)O4)nc1 (stereo not given),186 to 187 °C
9,O=C1CCC(C(=O)N2CSCC2C(=O)N2CCOCC2)N1 (stereo not given) ([pGlu]-[Thz]-Morpholide; configuration not given here),187 to 188 °C
10,Cc1c(O[Si](C)(C)C(C)(C)C)cc(O[Si](C)(C)C(C)(C)C)cc1C(=O)O[Si](C)(C)C(C)(C)C,64 °C
11,COC(=O)NC1=NC(c2cccc(O)c2)CN1 (stereo not given),180 to 183 °C
12,CCCCCOc1ccc(C=O)cc1O,55 to 56 °C
13,N#Cc1ccc2[nH]cc(C=C[N+](=O)[O-])c2c1,217 to 220 °C
14,CN(CCOc1ccc(N)cc1)CCc1ccc(N)cc1,73 to 74 °C
15,Cn1c(C(=O)NN)nc2ccccc21,156 to 159 °C
16,O=S(=O)(Nc1nc2ccccc2nc1Nc1cccc2ccccc12)c1ccc(Cl)cc1,262 to 265 °C
17,CC1(C)C(=O)N(c2ccc([N+](=O)[O-])c(C(F)(F)F)c2)C(=O)N1CCCN1C(=O)N(c2ccc([N+](=O)[O-])c(C(F)(F)F)c2)C(=O)C1(C)C,164 to 165 °C
18,O=C(CC(c1ccccc1)(c1ccccc1)c1ccccc1)N1CC2=C(C1)c1cccc3cccc2c13,159 to 168 °C
19,CC(ON=C(C(=O)O)c1ccc(O)c(Cl)c1)C(=O)OC(C)(C)C (stereo not given),148 to 151 °C
20,O=C(Nc1ccc2nc(CN3CCN=C3Cc3ccccc3)ccc2c1)c1ccc(-c2ccc(F)cc2)cc1,200 to 202 °C
21,CCC(=O)N1CCC(NC(=O)Nc2ccccc2)CC1,169 to 171 °C
22,COc1cc(O)ccc1-c1nc(C)c(-c2cccnc2)[nH]1,237 to 240 °C
23,NCC(=O)N[C@H]1CC[C@H](O)CC1,110 to 114 °C
24,O=[N+]([O-])c1ccc(-c2cnc3nc(SCc4ccccc4)nn3c2)cc1,195 to 199 °C
25,Cc1cc(SC2=C(O)CC(CCc3ccsc3CO)(C(C)C)OC2=O)c(C(C)(C)C)cc1N (stereo not given),107 to 115 °C

row,Compound,melting point
1,Cc1cc(-c2cnn3c(C(F)(F)F)cc(-c4ccc(Br)cc4)nc23)cc(C)n1,258 °C
2,Cc1ccccc1-c1cc(O)ncc1C(=O)N(C)Cc1cc(C(F)(F)F)cc(C(F)(F)F)c1,91 to 93 °C
3,CC(=O)SCC(C)C(=O)N(C1Cc2ccccc2C1)[C@@H](C)C(=O)O (stereo not given in full),140 to 142 °C
4,COc1ccc(N(Cc2ccc(C#N)cc2)n2ccnc2)cc1,207 °C
5,FC(F)(F)c1cccc(-c2cc(Cl)n3nccc3n2)c1,137 to 139 °C
6,CCn1c(=O)oc2cc([N+](=O)[O-])cc(F)c21,121 to 122 °C
7,COc1ccc2c(C(=O)O)cccc2c1SC(F)(F)F,204 to 205 °C
8,O=C(Nc1ccccc1)N1Cc2cccn2-c2ccsc2C1=O,176 °C
9,CC(C)(C)C(NC(=O)c1ccc(Cl)cc1)Nc1c(Nc2ccc(F)cc2)c(=O)c1=O (stereo not given),247 to 249 °C
10,CCOC(=O)NCCN1CCC(NC(=O)c2cc(Cl)c(N)c3c2OCCC3)CC1,160 °C
11,O=S(=O)(O)c1ccc2nc(NC3=NCCN3)[nH]c2c1,> 360 °C
12,CC1(C)CCCC(N2CCN(C3CCC(C(C)(C)C)CC3)CC2)C1 (stereo not given),90 to 92 °C
13,NC(=O)C(CCc1ccccn1)(c1ccccc1)c1ccccc1,145 to 146 °C
14,Oc1ccccc1Oc1ccc(-c2ccsc2)cc1O,114 to 116 °C
15,CCOC(=O)C(=O)N(CCN=[N+]=[N-])N=Cc1ccccc1,59 to 61 °C
16,COc1ccc(-c2nc(C(=O)O)cc(Cl)c2Cl)cc1,164 to 181 °C
17,CCn1c(C)nc(OCc2ccc(OCc3ccc(F)cc3)cc2)c(C)c1=O,81 to 82.3 °C
18,O=C(NCP(=O)(O)O)c1ccccc1,171 to 173 °C
19,Cc1ccccc1[C@@H](CCC(=O)O)Oc1cc(OCc2ccsc2)ccc1[N+](=O)[O-],130 to 131 °C
20,CC(C)[C@H](NC(=O)CCC(=O)Nc1ccccc1)C(N)=O,218 to 220 °C
21,COCCC(=O)N[C@H]1CC[C@H](CCN2CCC(c3ccc(F)c4occc34)CC2)CC1,177 °C
22,CC(=O)NC(C)(C)c1ccc(CN2CCN(c3cccc(F)n3)CC2)cc1,133 to 134 °C
23,CS(=O)(=O)c1ccc(-c2cnn(-c3cccs3)c(=O)c2-c2ccc(F)cc2)cc1,215 to 217 °C
24,Cc1cccc(C(=O)NCN2CCN(c3ncccc3C#N)CC2)c1,128 to 130 °C
25,CCSc1cc(C(C)C)ccc1N(CC)c1nc(C)cc(C)n1,128 to 130 °C

row,Compound,melting point
1,COc1cc(Nc2nccc(-c3cccc(NCCCO)c3)n2)cc(OC)c1OC,92 to 95 °C
2,CCn1c(-c2c(C)cc(C)cc2C)nc(-c2ccncc2)c1-c1ccc(C)cc1,137 to 140 °C
3,Cn1c(C(=O)NCCCO)c2ccc(Cl)cc2c1-c1ccccc1,155 to 160 °C
4,O=C(NC1CCN(CCCc2ccc(Cl)cc2)C1)C12CC3CC(CC(C3)C1)C2 (stereo not given),117 to 119 °C
5,CCOc1ccc([N+](=O)[O-])c(NC)n1,101 °C
6,CCN(CC)C(=O)COc1nc(-c2ccccc2)nc2ccccc12,113 °C
7,O=CNCC1CC2C3CC4C2C4C13 (stereo not given),225 to 226 °C
8,COCCN(C)C(=O)c1cc2c(nc(C)n2C)c2c1CCC1(Cc3ccccc3C1)N2,160 to 161 °C
9,CS(=O)(=O)c1ccc(C(=O)C2C(=O)CCCC2=O)c(Cl)c1OCc1cc(-c2ccccc2)no1,72 to 78 °C
10,CCOc1ccccc1-c1ncc(C(=O)O)c(=O)[nH]1,168 to 184 °C
11,N#CCCNC(=O)c1cccc(Br)c1,100 to 101 °C
12,COC(=S)CCc1cc(C(C)(C)C)cc(C(C)(C)C)c1O,55 to 55.5 °C
13,CCCOc1ccc(S(=O)(=O)N2CCN(C)CC2)cc1-c1cc2c([nH]1)c(=O)n(C)c(=O)n2CCC,198 °C
14,CCOC(=O)c1cc(NCc2ccccc2)c(Nc2ccc(C)cc2C)c(S(N)(=O)=O)c1,167 to 168 °C
15,O=C(NCCO)/C(=C/c1ccc(OC2CC2)cc1)NC(=O)c1ccc(OCCC2CC2)cc1,132 to 134 °C
16,CCCN(CCC)C1Cc2cccc3[nH]c(=O)n(c23)C1 (stereo not given),190 to 192 °C
17,CC1CC(C)CN(S(=O)(=O)c2ccc(F)c(C(=O)O)c2)C1 (stereo not given),140 °C
18,OC(CCNCc1ccccc1)(COc1ccc(Cl)cc1)c1ccccc1 (stereo not given),70 to 71 °C
19,COc1ccc2c(c1OC)CN(C=O)CCc1cc(OCc3ccccc3)ccc1CC2,140 to 141 °C
20,O=C(OCc1ccccc1)[C@H](Cc1ccc(-c2ccccc2)cc1)NCP(=O)(Oc1ccccc1)Oc1ccccc1,85 to 86 °C
21,Cn1ncc(/C=C/C(=O)Nc2ccc(Cc3n[nH]c(=O)o3)cc2)c1-c1ccc(F)cc1,262 to 263 °C
22,CCOC(=O)C(CC(=O)OC1CC2CCC1(C)C2(C)C)(NC(=O)OCc1ccccc1)C(N)=O (stereo not given),105 to 106 °C
23,CCOC(=O)CN1Cc2ccccc2CC(N)C1=O (stereo not given),71 to 73 °C
24,Cc1ccc2c(c1)C(c1cn(C)c(=O)[nH]c1=S)c1nc(C)oc1C=C2 (stereo not given),238 to 240 °C
25,CC(=O)Nc1c(C)c2c(c(C)c1N(C)C)OC(C)(C)C2,142 to 143 °C

row,Compound,melting point
1,COc1ccc(COC2C=C(C)C(=NN(C)C)CC(C)(C)C2OC)cc1 (stereo not given),71 to 72 °C
2,O=C(O)CN(CF)C(=O)c1ccccc1,233 to 235 °C
3,NC(=O)C(N)c1c(Cl)cccc1Cl (stereo not given),166 °C
4,Cc1cc2c(cc1C)C(c1ccccc1Cl)C(=O)N2 (stereo not given),231 °C
5,CC(=O)O[C@H]1C[C@@H](N=O)C(Cl)O[C@@H]1COS(=O)(=O)c1ccc(C)cc1 (stereo not given in full),148 to 150 °C
6,Clc1ccc2c(NCCCCCCCCCNc3ncnc4cc(Cl)ccc34)ncnc2c1,159 to 162 °C
7,CCSc1cc(C)nc(SCC)c1NC(=O)CCCCCCCCSc1nc2ccccc2[nH]1,76 to 78 °C
8,Cc1cc(CSCCN)sc1CN1CCCCC1,81 °C
9,CC(CCC(N)=O)C1CC=C2C3=C(CCC21C)C1(C)CCC(O)C(C)(C)C1CC3 (stereo not given),233 to 235 °C
10,CCOC(=O)N1CCC(n2c(=O)n(C)c3cc(Cl)ccc32)CC1,122 °C
11,O=CNC1=CCc2ccccc21,87.5 to 88.5 °C
12,NC(=O)N(O)CC=Cc1ccc(Oc2ccccc2)o1,126 to 128 °C
13,CCc1cc(CC)nc(S)n1,82 to 84.5 °C
14,CCOC(=O)C1=C(C)Nc2nc[nH]c(=O)c2C1c1ccccc1 (stereo not given),303 to 305 °C
15,COc1cc(C(C)=O)ccc1OCCCN1CCC(c2n[nH]c3ccccc23)CC1,171 to 173 °C
16,Cc1ccc(S(=O)(=O)NCCc2cccc(OCC(=O)Nc3nnn[nH]3)c2)cc1,199 to 201 °C
17,CCCCNC(=O)[C@@H](C[C@H](O)[C@H](CC1CCCCC1)N=[N+]=[N-])C(C)C,100 °C
18,Cc1ccc2cccc(OCc3c(Cl)ccc(S(=O)(=O)N4CCC[C@H]4C(=O)NCCCNC(=O)c4ccc(C(N)=NO)cc4)c3Cl)c2n1,120 to 124 °C
19,Cn1nc(C(F)(F)F)c(C(=O)CC#N)c1Cl,103 to 105 °C
20,COCC(=O)Nc1cccc(C2(C3CCN(C(=O)c4ccc(C(=O)OC)cc4)CC3)N=C(N)N(C)C2=O)c1 (stereo not given),161 to 163 °C
21,CNS(=O)(=O)c1c(C)cc(OC)cc1C,131 °C
22,C=CCC1COC(CC)(CC(=O)O)c2[nH]c3c(CC)cccc3c21 (stereo not given),96 to 97 °C
23,CCOC(=O)CC(O)(CC)c1cc2n(c(=O)c1C)Cc1cc3ccccc3nc1-2 (stereo not given),185 to 188 °C
24,CNC(=O)Nc1ccc(CN2OCC(C)(C)C2=O)c(Cl)c1,227 to 229 °C
25,CN1Cc2c(-c3noc(CNC4CC4)n3)ncn2-c2ccc(F)cc2C1=O,176 to 178 °C

# Source: a melting point compilation (Tetko et al.; mined from patent text by program, amines drawn as free bases though some values may be those of a salt)
